Literature values as cited in patent US20100029716A1, “NOVEL 1,2,3,4- TETRAHYDROQUINOLINE DERIVATIVES” (CONCERT PHARMACEUTICALS, INC., priority 2006, published 2010).

Key:
human CETP = molecular target: T1, human CETP (Homo sapiens, UniProt P11597); settings: transgenic hCETP mice
T1 construct: host or cells: transgenic mice expressing human CETP and apolipoprotein A1 (hCETP mice)
T1 sequence (P11597 18-493): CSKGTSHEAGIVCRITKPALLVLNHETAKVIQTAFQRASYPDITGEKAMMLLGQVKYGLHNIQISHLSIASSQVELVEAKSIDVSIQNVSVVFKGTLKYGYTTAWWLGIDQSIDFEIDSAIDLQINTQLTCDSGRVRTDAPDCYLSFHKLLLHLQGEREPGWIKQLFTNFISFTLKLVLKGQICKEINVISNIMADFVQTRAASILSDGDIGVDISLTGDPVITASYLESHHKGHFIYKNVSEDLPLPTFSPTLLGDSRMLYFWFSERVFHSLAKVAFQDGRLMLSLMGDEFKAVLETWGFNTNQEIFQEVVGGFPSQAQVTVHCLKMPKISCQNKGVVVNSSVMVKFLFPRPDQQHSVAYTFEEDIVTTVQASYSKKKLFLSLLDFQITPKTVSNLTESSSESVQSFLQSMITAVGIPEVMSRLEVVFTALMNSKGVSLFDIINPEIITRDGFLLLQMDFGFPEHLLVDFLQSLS

[1] = conventional formulations
atherosclerotic lesions = settings: rabbit model of atherosclerosis
[2] = healthy volunteers, 14-day dosing period

CCOC(=O)N1c2ccc(C(F)(F)F)cc2[C@@H](N(Cc2cc(C(F)(F)F)cc(C(F)(F)F)c2)C(=O)OC)C[C@H]1CC [Compound 1, (2R,4S)-ethyl 4-((3,5-bis(trifluoromethyl)benzyl)-(methoxycarbonyl)amino)-2-ethyl-6-(trifluoromethyl)-3,4-dihydroquinoline-1(2H)-carboxylate]
rate of cholesterol oleate transfer from LDL donor particles to HDL (human CETP): decreased rates | HDL cholesterol (human CETP; multiple dosing): increased HDL cholesterol | oral bioavailability [1]: low | formation of atherosclerotic lesions (atherosclerotic lesions): reduce the formation of atherosclerotic lesions | increase of HDL cholesterol levels [2]: up to 91% | reduction of LDL cholesterol [2]: up to 42% | aqueous solubility: poor
